According to US12485078B2, “Personal dental care product for caries treatment” (Credentis AG, priority 2016, dated 2025):
No end group written: not given here.

Assays:
[1] = pH at which the peptide starts to undergo self-assembly; type: physicochemical; settings: in solution
Text: As used herein, the pH at which the self-assembling peptide starts to undergo self-assembly refers to the pH below which a significant extent of self-assembly of the peptides in solution is observed, which means that at least about 25%, about 30%, about 35%, about 40%, about 45%, about 50%, about 55%, about 60%, about 65%, about 70%, about 75%, about 80%, about 85%, about 90%, about 95%, about 99% or even about 100% of the peptides found in the dental care product are assembled. In a preferred embodiment, at least about 25% of the peptides found in the dental care product are assembled below the pH at which the peptide starts to undergo self-assembly.
Further, the skilled person is aware of numerous methods to determine the pH at which a peptide of the present invention will start self-assembly at a given ionic strength. Suitable methods are denoted e.g. in a publication by Aggeli et al. (2003, J Am Chem Soc, 125, 9619-9628).

[2] = self-assembling kinetic by measurements of elastic modulus G' (FIG. 6); type: physicochemical; settings: 15 mg/ml; neutral pH; independent of ionic strength (buffers 140-165 mM); 0.1% strain, 37° C., 1 rad/second
Experimental: P11-4 was prepared at 15 mg/ml with different buffer compositions (see below) measured at 0.1% strain, 37° C. and a frequency of 1 rad/second. Self-assembly of peptide monomers to polymers takes more than 5 min independent of the used ionic strength at neutral pH. • Squares (top line of symbols)−NaCl: Tris (0.055 M)+NaCl, final ionic strength 142 mM; • Artificial saliva (second line of symbols from top): Tris, Ca(NO3)2, KH2PO4 (ratio 0.77:0.14:0.08), ionic strength 142 mM; • Dulbecco's Modified Eagle Medium (DMEM): NaCl, NaHCO3, KCl, CaCl2, MgSO4 (ratio 0.66:0.4:0.05:0.02:0.007), ionic strength 165 mM; • MgSO4: 0.055 M Tris+0.192 M MgSO4 0.14 M Ionic strength

[3] = self-assembling kinetic by quartz crystal microbalance with dissipation monitoring (QCM-D, FIG. 7); type: physicochemical; settings: 10 mg/ml P11-4 in PBS pH 8.5 on P11-4 coated amine-coupling sensor
Experimental: P11-4 peptide was layered on the surface of the amine-coupling sensor at 1 mg/ml in PBS at pH8.5. After 1 hour and 1 hour 25 minutes, the sensor was washed with PBS pH 8.5. After 1 hour and 38 minutes, 10 mg/ml P11-4 peptide in PBS pH 8.5 were injected. After 2 hours, 0.1 M HCl were injected to induce self-assembly.
It can be seen that essentially complete self-assembly has occurred about 30 min after injection of 0.1 M HCl. Resonance frequency F (left scale, Hz) and energy dissipation factor D (right scale), triangle=frequency, square=dissipation are shown.

[4] = Penetration of P11-4 (200 ppm, spiked with 10 ppm ATTO647-P11-4, 25 mM TRIS) into artificial subsurface lesions, confocal microscopy; set-up: species or system human
Experimental: Creation of artificial lesions on extracted human molar teeth was performed as described by Lo et al. 2010 (J Dent. 38(4):352-359). To define the position of the demineralized subsurface area (i.e., artificial carious lesion or white spot), the tooth was covered with colourless nail varnish, leaving a window of approximately 4×4 mm. The tooth was placed in demineralization buffer (2.2 mM CaCl2, 2.2 mM NaH2PO4, 50 mM acetic acid; pH adjusted with 1 M KOH to 4.4) for 3 d at 37° C. To ensure that all pores are open, as in a typical active caries lesion, the resulting subsurface lesions were treated with 10 μL of 2% NaClO (incubation for 1 min), rinsed, and air-dried at room temperature.
• A 200 ppm (i.e., 200 μg/ml) solution of P11-4 (SEQ ID NO: 2), spiked with 10 ppm ATTO647-P11-4 (fluorescence labelled P11-4 (SEQ ID NO: 6): Ac-QQRFEWEFEQQSGSGC-(ATTO647)-NH2), i.e., 1:20, in 25 mM TRIS buffer was prepared at different pH, in particular, at 8.4 or 8.5 or 6.3, 6.5 or 6.8) • As specified in the table below, tooth were optionally pretreated, e.g., by incubation in human saliva for one day (about 24 hours), optionally followed by 5 min sonication (258 hz with a sonic toothbrush, Sonicare Diamond Clean® (Philips)) or by immersion in 2% NaClO for 1 min. • Tooth were immersed in the P11-4 solution for a defined period of time, 1, 2 or 5 min, and then removed and washed in water for 10 min or in remineralization buffer (2 mM Ca(NO3), 1.2 mM KHPO4, and 60 mM Tris/HCl, pH adjusted to 7.4 with 1 M KOH) for 4 days and/or 6 days. • Confocal assessment after 1, 2 or 5 min incubation was carried out while the teeth were in P11-4 solution, and optionally, after washing in water or in remineralization buffer after 10 min or 4 or 6 days. c) Confocal Microscopy
Samples were placed in a μ-slide I (ibidi, Martinsried) in dest. water and analyzed by a confocal laser microscope (Olympus IX81). The recorded stack of four 2-dimensional images each projected the lesion volume of 51.4 μm thickness, giving a total assessment depth of 205 μm (objective: UPLSAPO 20×/NA 0.75; helium-neon gas laser; excitation: 633 nm and emission: 668 nm). Images were analyzed by Olympus software (FluoView FV1000).

In the case of “QQRFEWEFEQQ [self-assembling peptide of 11 amino acids]”, the “pH at which the self-assembling peptides start to undergo self-assembly” value [1] is reported as “about 7.5”, the “time for self-assembly of peptide monomers to polymers” value [2] is reported as “more than 5 min” and the “time to essentially complete self-assembly after injection of 0.1 M HCl” value [3] is reported as “about 30 min”. For the same sequence, the “peptide in the lesions after 4 days' incubation in remineralization buffer” value ([4]; pH8.5, FIG. 9Be) was “Lower but significant amounts”, the “peptide in the lesions after 1 min incubation” value ([4]; pH8.5, teeth 10 and 1, FIG. 9Bb) was “already detectable” and the “peptide in the lesions after 2 min or 5 min incubation” value ([4]; pH8.5, teeth 10 and 1, FIG. 9Bc, 9Bd) was “most peptide was detected”. The “effect of incubation in remineralization buffer after contact with P11-4 containing solution” value ([4]; remineralization buffer versus water wash (tooth 10 versus tooth 2)) was “improves maintenance of the self-assembling peptide in the lesion”, the “effect of pellicle formation by saliva on infiltration at pH 6.3-6.8” value ([4]; teeth 3, 13) was “further decreased infiltration by peptide” and the “peptide detectable in the lesions after incubation at pH 6.3-6.8 (polymerized form)” value ([4]; teeth 4, 12, 3, 13, versus incubation at pH 8.4 or 8.5) was “lower amounts of peptide”. For the same sequence, the “negative effect of pellicle after cleaning by sonication or NaClO” value ([4]; teeth ZR3 (sonication) and ZR2 (NaClO), after incubation with human saliva) was “could be compensated for”, the “effect of sonification pretreatment before incubation on peptide in the lesions” value ([4]; tooth ZR1, pH 8.5) was “increased presence of peptide in the lesions” and the “peptide detected after pellicle formation and cleaning by sonification” value ([4]; versus no pre-incubation with saliva) was “even higher amounts than without pre-incubation with saliva”.
